The values that follow are results of earlier work, collected in patent publication US10149481B2, “Arthropod control compositions and methods” (Tyratech, Inc., priority 2012, dated 2018).

The conditions of series [1]: for mammalian toxicity: Nentwig 2003, Frances 2007b, Moore and Debboun 2007.
Another series has as its system D. variabilis. The note with it: 2 h after application, unformulated (Kimps et al. 2011).

Regarding Picaridin, in series [1], the mammalian toxicity entry is “low mammalian toxicity”.
`CCCCCCCCCC(C)=O` [2-undecanone]: in the series with D. variabilis, the repellency is 74%.
Regarding `CCCCN(CCC(=O)OCC)C(C)=O` [IR3535, 3-(N-Butyl-N-acetyl)-amino propionic acid ethyl ester], the mammalian toxicity result in series [1] is on record as “low mammalian toxicity”.
Turning to `CC1CCC(C(C)(C)O)C(O)C1` (centres unmarked) [PMD, p-menthane-3,8-diol], in series [1] (Strickman 2007), the eye irritation result is reported as “exceptionally irritating to the eyes”; the “rat oral and rabbit dermal toxicity” value is given as “low”.
